Laboratory results published in ChEMBL document CHEMBL4699597, “Tabernaesines A-I, Cytotoxic Aspidosperma-Aspidosperma-Type Bisindole Alkaloids from Tabernaemontana pachysiphon” (J Nat Prod, 2020).

Tests used:
Type in all cases: functional, cell-based
HepG2 = test: Cytotoxicity against human HepG2 cells assessed as reduction in cell viability after 72 hrs by MTT assay; conditions: HepG2, 72 h
SK-MEL-28 = test: Cytotoxicity against human SK-MEL-28 cells assessed as reduction in cell viability after 72 hrs by MTT assay; conditions: SK-MEL-28, 72 h
MDA-MB-231 = test: Cytotoxicity against human MDA-MB-231 cells assessed as reduction in cell viability after 72 hrs by MTT assay; conditions: MDA-MB-231, 72 h
A549 = test: Cytotoxicity against human A549 cells assessed as reduction in cell viability after 72 hrs by MTT assay; conditions: A549, 72 h
SW480 = test: Cytotoxicity against human SW480 cells assessed as reduction in cell viability after 72 hrs by MTT assay; conditions: SW480, 72 h
T47D = test: Cytotoxicity against human T47D cells assessed as reduction in cell viability after 72 hrs by MTT assay

| Structure (SMILES) | IC50 (HepG2) [µM] | IC50 (SK-MEL-28) [µM] | IC50 (MDA-MB-231) [µM] | IC50 (A549) [µM] | IC50 (SW480) [µM] | IC50 (T47D) [µM] |
| --- | --- | --- | --- | --- | --- | --- |
| COC(=O)C1=C2Nc3ccccc3[C@@]23CCN2C[C@]4(C[C@@H]5C[C@]67CCO[C@H]6CCN6CC[C@@]8(c9cccc(OC)c9N(C4)[C@@]58O)[C@@H]67)[C@@H]4OCC[C@]4(C1)[C@H]23 | > 10 | > 10 | > 10 | > 10 | > 10 | > 10 |
| CC[C@@]12C[C@H]3C[C@@]4(CN5CC[C@]67C(=C(C(=O)OC)C[C@@]8(CCO[C@@H]48)[C@H]56)Nc4ccccc47)CN4c5ccccc5[C@@]5(CCN(C[C@H](O)[C@H]1O)[C@@H]25)[C@]34O | > 10 | > 10 | > 10 | > 10 | > 10 | > 10 |
| COC(=O)C1=C2Nc3ccccc3[C@@]23CCN2CC(CC4=C[C@@]5(CCO)CC(C(=O)OC)=C6Nc7ccccc7[C@@]67CCN(C4)[C@@H]57)=C[C@@](CCO)(C1)[C@H]23 | > 10 | > 10 | > 10 | > 10 | > 10 | > 10 |
| CC[C@@]12C[C@H]3C[C@]4(CN5CC[C@]67C(=C(C(=O)OC)C[C@@]8(CCO[C@@H]48)[C@H]56)Nc4ccccc47)CN4c5ccccc5[C@@]5(CCN(C[C@H]6O[C@H]61)[C@@H]25)[C@H]34 | > 10 | > 10 | > 10 | > 10 | > 10 | > 10 |
| CC[C@@]12C[C@H]3C[C@]4(CN5CC[C@]67C(=C(C(=O)OC)C[C@@]8(CCO[C@@H]48)[C@H]56)Nc4ccccc47)CN4c5ccccc5[C@@]5(CCN(C[C@H](O)[C@H]1O)[C@@H]25)[C@]34O | > 10 | > 10 | > 10 | > 10 | > 10 | 9.5 |
| COC(=O)C1=C2Nc3ccccc3[C@@]23CCN2C[C@]4(C[C@@H]5C[C@]67CC(=O)O[C@H]6CCN6CC[C@@]8(c9cccc(OC)c9N(C4)[C@@H]58)[C@@H]67)[C@@H]4OCC[C@]4(C1)[C@H]23 [DEOXYVOBSTUSINE LACTONE] | > 10 | > 10 | > 10 | > 10 | > 10 | > 10 |
| CCN(CC)Cc1ccc2c(c1O)N1C[C@]3(C[C@@H]4C[C@]56CCO[C@H]5CCN5CC[C@@]2([C@@H]56)[C@]41O)CN1CC[C@]24C(=C(C(=O)OC)C[C@@]5(CCO[C@@H]35)[C@H]12)Nc1ccccc14 | 7.4 | 8.3 | > 10 | > 10 | > 10 | > 10 |
| COC(=O)C1=C2Nc3ccccc3[C@@]23CCN2C[C@]4(C[C@@H]5C[C@]67CC(=O)O[C@H]6CCN6CC[C@@]8(c9cccc(OC)c9N(C4)[C@@]58O)[C@@H]67)[C@@H]4OCC[C@]4(C1)[C@H]23 | > 10 | > 10 | > 10 | > 10 | > 10 | > 10 |
| CC[C@@]12CC3=C4N(C[C@]5(C3)CN3CC[C@]67C(=C(C(=O)OC)C[C@@]8(CCO[C@@H]58)[C@H]36)Nc3ccccc37)c3ccccc3[C@@]43CCN(C[C@H]4O[C@H]41)[C@@H]23 | > 10 | > 10 | > 10 | > 10 | > 10 | > 10 |
| CC[C@@]12C[C@H]3C[C@@]4(CN5c6ccccc6[C@@]6(CCN(C[C@H]7O[C@H]71)[C@@H]26)[C@H]35)C(=O)N1CC[C@]23C(=C(C(=O)OC)C[C@@]5(CCO[C@@H]45)[C@H]12)Nc1ccccc13 | 6.3 | 6.8 | > 10 | > 10 | 9.8 | 9.8 |
| COC(=O)C1=C2Nc3ccccc3[C@@]23CCN2C[C@]4(C[C@@H]5C[C@]67CC(=O)O[C@H]6CCN6CC[C@@]8(c9cccc(O)c9N(C4)[C@@]58O)[C@@H]67)[C@@H]4OCC[C@]4(C1)[C@H]23 | > 10 | > 10 | > 10 | > 10 | > 10 | > 10 |
| CC[C@@]12C[C@]3(CC4=C5N(C3)c3ccccc3[C@@]53CCN5C[C@H]6O[C@H]6[C@@](CC)(C4)[C@H]53)C3=Nc4ccccc4[C@@]34CCN(C[C@H]3O[C@H]31)[C@@H]24 | > 10 | > 10 | > 10 | > 10 | > 10 | > 10 |
| CC[C@]1(O)C[C@@H]2CN(CCc3c([nH]c4ccccc34)[C@@](C(=O)OC)(c3cc4c(cc3OC)N(C)[C@H]3[C@@](O)(C(=O)OC)[C@H](OC(C)=O)[C@]5(CC)C=CCN6CC[C@]43[C@@H]65)C2)C1 [VINBLASTINE] | 0.0093 | 0.0733 | 0.0425 | 0.021 | 0.0325 | 0.0103 |
| CC[C@@]12C[C@H]3C[C@]4(CN5CC[C@]67C(=C(C(=O)OC)C[C@@]8(CCO[C@@H]48)[C@H]56)Nc4ccccc47)CN4c5ccccc5[C@@]5(CCN(C[C@H](O)[C@H]1O)[C@@H]25)[C@H]34 | 2.5 | 6.7 | > 10 | > 10 | 7.8 | 8.7 |
| CC[C@@]12C[C@H]3C[C@@]4(CN5CC[C@]67C(=C(C(=O)OC)C[C@@]8(CCO[C@@H]48)[C@H]56)Nc4ccccc47)CN4c5ccccc5[C@@]5(CCN(C[C@H](O)[C@H]1O)[C@@H]25)[C@H]34 | > 10 | > 10 | > 10 | > 10 | > 10 | > 10 |
| CC[C@@]12C[C@H]3C[C@@]4(CN5CC[C@]67C(=C(C(=O)OC)C[C@@]8(CCO[C@@H]48)[C@H]56)Nc4ccccc47)CN4c5ccccc5[C@@]5(CCN(C[C@H]6O[C@H]61)[C@@H]25)[C@H]34 | > 10 | > 10 | > 10 | > 10 | > 10 | > 10 |
| CCN(CC)Cc1ccc2c(c1O)N1C[C@]3(C[C@@H]4C[C@]56CC(=O)O[C@H]5CCN5CC[C@@]2([C@@H]56)[C@]41O)CN1CC[C@]24C(=C(C(=O)OC)C[C@@]5(CCO[C@@H]35)[C@H]12)Nc1ccccc14 | > 10 | > 10 | > 10 | > 10 | > 10 | > 10 |
| CC[C@@]12C[C@H]3C[C@]4(CN5CC[C@]67C(=C(C(=O)OC)C[C@@]8(CCO[C@@H]48)[C@H]56)Nc4ccccc47)CN4c5ccccc5[C@@]5(CCN(C[C@H]6O[C@H]61)[C@@H]25)[C@]34O | 9.6 | 6.4 | > 10 | > 10 | 7.2 | 5.5 |
| CC[C@@]12C[C@H]3C[C@@]4(CN5CC[C@]67C(=C(C(=O)OC)C[C@@]8(CCO[C@@H]48)[C@H]56)Nc4ccccc47)CN4c5ccccc5[C@@]5(CCN(C[C@H]6O[C@H]61)[C@@H]25)[C@]34O | > 10 | > 10 | 8.3 | > 10 | > 10 | > 10 |
